Measurements from PMC5267519, “Evaluation of a Novel Renewable Hepatic Cell Model for Prediction of Clinical CYP3A4 Induction Using a Correlation-Based Relative Induction Score Approach” (Drug Metabolism and Disposition, 2017).
Values joined by “and” are separate entries in the source; they are usually repeats but may differ in a detail not shown here. Identical values can stand only once. Like-named read-outs stand apart in the source and are kept apart here.

Experiments:
CYP3A4 [1] = conditions: cited from earlier work
human CAR [2] = molecular target: T1, human CAR (Homo sapiens, UniProt Q14994); test: Ad-EYFP-hCAR nuclear translocation in HepatoCells; type: cell-based; conditions: 1 mM phenobarbital for 12 hours
T1 construct: expressed in transfected cells; host or cells: primary human hepatocytes (Corning Gentest inventory), adenoviral transduction
T1 sequence (Q14994 1-352): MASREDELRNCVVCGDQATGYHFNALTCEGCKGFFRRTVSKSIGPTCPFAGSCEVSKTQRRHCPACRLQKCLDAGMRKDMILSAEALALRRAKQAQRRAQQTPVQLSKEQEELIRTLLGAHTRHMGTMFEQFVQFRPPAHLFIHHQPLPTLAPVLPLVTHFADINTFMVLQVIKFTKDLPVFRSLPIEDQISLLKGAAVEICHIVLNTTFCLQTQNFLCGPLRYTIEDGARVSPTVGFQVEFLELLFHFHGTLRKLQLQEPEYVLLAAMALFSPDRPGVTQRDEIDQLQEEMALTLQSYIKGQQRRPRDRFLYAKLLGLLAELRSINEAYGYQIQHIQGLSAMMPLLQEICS
Method: Previous studies have used adenoviral-enhanced yellow fluorescent protein-tagged-human CAR (Ad-EYFP-hCAR) as a tool to visualize nuclear translocation of hCAR from cytoplasm in primary human hepatocytes upon exposure to phenobarbital ([Li et al., 2009]). […] The same Ad-EYFP-hCAR fusion protein model system was used to study CAR nuclear translocation in HepatoCells. A 3-day culture of HepatoCells was transduced with Ad-EYFP-hCAR for 24 hours. Infected HepatoCells were then treated with 1 mM phenobarbital for 12 hours.

human CAR [3] = molecular target: T1, human CAR; test: Ad-EYFP-hCAR nuclear translocation in primary human hepatocytes; type: cell-based; conditions: phenobarbital treatment
CYP3A4 mRNA [4] = conditions: human
Method: (§1) Cryopreserved HepatoCells were thawed quickly in a 37°C water bath and transferred to Corning Culture Medium for HepatoCells supplemented with 10% fetal bovine serum and Pen/Strep (plating medium). After the cryo-freezing media was removed by centrifugation at 150g for 10 minutes, the cell pellet was resuspended in plating media and cell count was performed with trypan blue. Cells were then seeded in a Corning BioCoat Collagen I–coated plate (500,000 cells/well in 24-well plate or 80,000 cells/well in 96-well plate), and plates were incubated in a 37°C incubator with 5% CO2. […] Cells were then returned to the incubator for overnight culture.
(§2) Stock solutions of test compounds were prepared by dissolving each compound in DMSO and serially diluting the solutions in DMSO. Final working solutions were freshly prepared daily by diluting the 1000× stock solutions in culture medium. Three lots of HepatoCells culture were treated with eight concentrations of test compounds. Both enzymatic activity (testosterone 6β hydroxylase activity) and mRNA expression were measured as endpoints using LC-MS/MS and real-time reverse-transcription polymerase chain reaction, respectively.
(§3) Only curve fitting with correlation coefficient (R^2) > 0.85 is accepted. At high concentrations for some compounds, if toxicity or insolubility becomes obvious, such data are excluded from curve fitting.

CYP3A4 [5] = system: CYP3A4
Text: The resulting fitting equation was used to calculate predicted in vivo AUC change for each compound. […] Prediction accuracy using HepatoCells was also compared with prediction accuracy using primary human hepatocytes.

CYP2B6 [6] = test: CYP2B6 induction response to prototypical inducer, enzyme activity, HepatoCells; conditions: human, probe bupropion 250 µM
Method: as §1

CYP3A4 [7] = conditions: for RIS Based on Enzyme Activity: RIS = (Emax × Cmax,ub)/(EC50 + Cmax,ub)
CYP2B6 [8] = test: CYP2B6 induction response to prototypical inducer, enzyme activity, primary human hepatocytes; conditions: cryopreserved primary human hepatocytes, probe bupropion 250 µM
CYP3A4 mRNA [9] = test: in vitro; conditions: human
Method: as §1, §2, §3

[10] = set-up: method as in Zhang et al., 2014; conditions: from the literature; ref Zhang et al., 2014; cited from earlier work
PXR = system: PXR; set-up: method as in Luo et al. (2002); conditions: probenecid concentration up to 50 μM; ref Luo et al. (2002); cited from earlier work
CYP3A4 mRNA [11] = test: Concentration-dependent CYP3A4 mRNA induction in HepatoCells; conditions: for induction response: readout not specified; for Emax / EC50: CYP3A4 mRNA fold increase, NI = no induction observed at tested concentration; for Emax: 3 consecutive days treatment, quinidine: only observed maximum fold induction; for RIS Based on mRNA: RIS = (Emax × Cmax,ub)/(EC50 + Cmax,ub); for EC50: human, nominal concentrations
Method: as §1, §2, §3

CYP3A4 [12] = system: CYP3A4; set-up: method as in Luo et al. (2002); conditions: probenecid concentration up to 20 μM; ref Luo et al. (2002); cited from earlier work
[13] = Lot 2B HepatoCells, RIS calibration curve
[14] = Lot 3A HepatoCells, RIS calibration curve
[15] = Lot 3B HepatoCells, RIS calibration curve

SMILES: CCC1(c2ccccc2)C(=O)NC(=O)NC1=O [Phenobarbital]
- Observed % AUC Change (CYP3A4 [1]; human, in vivo): 61%
- EYFP-hCAR localisation after treatment (human CAR [2]): relocates to the cell nuclei
- EYFP-hCAR localisation after treatment (human CAR [3]): relocates to the cell nuclei
- RIS Based on mRNA, Mean (CYP3A4 mRNA [4]): 4.3
- Predicted % AUC Change Based on Activity (CYP3A4 [5]): 96% and 98%
- Predicted % AUC Change Based on mRNA (CYP3A4 [5]): 98% and 95%
- Predicted AUC change using HepatoCells (range of lots) (CYP3A4 [5]): 95–98%
- fold induction at 72 h, 1 mM (CYP2B6 [6]): 5
- RIS Based on Enzyme Activity, Mean (CYP3A4 [7]; human): 3.7
- fold induction at 72 h, 1 mM (CYP2B6 [8]): 7.8
- EC50 (CYP3A4 mRNA [9]): 775 µM

SMILES: CCCN(CCC)S(=O)(=O)c1ccc(C(=O)O)cc1 [Probenecid]
- unbound Cmax [10]: 28 µM
- Observed % AUC Change (CYP3A4 [1]; clinical DDI, decrease in AUC of victim drug (midazolam or nonmidazolam), ref Zhang et al., 2014): 20%
- activation of PXR (PXR): no activation of PXR
- Emax, mRNA expression (all lots) (CYP3A4 mRNA [11]; HepatoCells): more than 20 fold
- induction response (CYP3A4 mRNA [11]; HepatoCells, probenecid at 0.1–11 μM, significant = >twofold): did not exhibit significant induction response
- induction response (CYP3A4 mRNA [11]; HepatoCells, probenecid concentration higher than 33 μM): strong induction
- Emax (CYP3A4 mRNA [11]; Lot 2B HepatoCells): 25 Fold
- RIS Based on mRNA (CYP3A4 mRNA [11]; Lot 2B): 2.8
- Emax (CYP3A4 mRNA [11]; Lot 3A HepatoCells): 26 Fold
- RIS Based on mRNA (CYP3A4 mRNA [11]; Lot 3A): 3.2
- Emax (CYP3A4 mRNA [11]; Lot 3B HepatoCells): 22 Fold
- RIS Based on mRNA (CYP3A4 mRNA [11]; Lot 3B): 2.4
- EC50 (CYP3A4 mRNA [11]; EC50, Lot 2B HepatoCells): 187 µM
- EC50 (CYP3A4 mRNA [11]; EC50, Lot 3A HepatoCells): 176 µM
- EC50 (CYP3A4 mRNA [11]; EC50, Lot 3B HepatoCells): 195 µM
- RIS Based on mRNA, Mean (CYP3A4 mRNA [11]; mean of lots 2B, 3A, 3B): 2.8
- induction of CYP3A4 transcript or enzyme activity (CYP3A4 [12]): no activation of PXR or induction of CYP3A4 transcript or enzyme activity
- Predicted % AUC Change Based on Activity (CYP3A4 [5]; [13]): 96%
- Predicted % AUC Change Based on mRNA (CYP3A4 [5]; [13]): 98%
- Predicted % AUC Change Based on Activity (CYP3A4 [5]; [14]): 94%
- Predicted % AUC Change Based on mRNA (CYP3A4 [5]; [14]): 98%
- Predicted % AUC Change Based on Activity (CYP3A4 [5]; [15]): 83%
- Predicted % AUC Change Based on mRNA (CYP3A4 [5]; [15]): 95%
- Emax, enzyme activity (all lots) (CYP3A4 [7]; HepatoCells): 5.9- to 11.9 fold
- RIS Based on Enzyme Activity (CYP3A4 [7]; Lot 2B): 1.5
- RIS Based on Enzyme Activity (CYP3A4 [7]; Lot 3A): 1.0
- RIS Based on Enzyme Activity (CYP3A4 [7]; Lot 3B): 0.8
- RIS Based on Enzyme Activity, Mean (CYP3A4 [7]; mean of lots 2B, 3A, 3B): 1.1
